PMC12599248, “Selectivity profiles and substrate recognition of Rab-phosphorylating kinases” (Biochemical Journal, 2025)

Tests used:
[1] = biological target: T1, Rab9A (Homo sapiens, UniProt P51151); assay: dynamic scanning fluorimetry (SYPRO Orange); assay type: binding; settings: 1 mM nucleotide, 4 uM protein, 2.5 mM MgCl2, pH 7.4
T1 construct: near full-length without C-terminal prenylation region; pET-28a, His6 tag cut by TEV; E. coli BL21(DE3)
T1 sequence (P51151 1-180 limits assumed): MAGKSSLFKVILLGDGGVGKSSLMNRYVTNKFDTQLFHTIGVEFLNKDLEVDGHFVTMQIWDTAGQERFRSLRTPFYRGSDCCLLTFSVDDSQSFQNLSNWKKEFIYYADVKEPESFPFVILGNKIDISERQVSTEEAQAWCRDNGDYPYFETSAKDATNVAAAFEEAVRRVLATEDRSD

[2] = biological target: T2, Rab43 (Homo sapiens, UniProt Q86YS6); assay: dynamic scanning fluorimetry (SYPRO Orange); assay type: binding; settings: 1 mM nucleotide, 4 uM protein, 2.5 mM MgCl2, pH 7.4
T2 construct: near full-length without C-terminal prenylation region; pET-28a, His6 tag cut by TEV; E. coli BL21(DE3)
T2 sequence (Q86YS6 1-185 limits assumed): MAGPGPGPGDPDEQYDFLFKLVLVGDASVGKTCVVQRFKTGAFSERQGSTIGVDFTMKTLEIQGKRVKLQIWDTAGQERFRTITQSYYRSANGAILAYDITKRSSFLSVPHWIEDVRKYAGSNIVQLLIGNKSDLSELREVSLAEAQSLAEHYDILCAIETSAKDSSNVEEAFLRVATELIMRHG

[3] = biological target: T3, Rab7A (Homo sapiens, UniProt P51149); assay: dynamic scanning fluorimetry (SYPRO Orange); assay type: binding; settings: 1 mM nucleotide, 4 uM protein, 2.5 mM MgCl2, pH 7.4
T3 construct: near full-length without C-terminal prenylation region; pET-28a, His6 tag cut by TEV; E. coli BL21(DE3)

[4] = biological target: T4, Rab15 (Homo sapiens, UniProt P59190); assay: dynamic scanning fluorimetry (SYPRO Orange); assay type: binding; settings: 1 mM nucleotide, 4 uM protein, 2.5 mM MgCl2, pH 7.4
T4 construct: near full-length without C-terminal prenylation region; pET-28a, His6 tag cut by TEV; E. coli BL21(DE3)
T4 sequence (P59190 1-208 limits assumed): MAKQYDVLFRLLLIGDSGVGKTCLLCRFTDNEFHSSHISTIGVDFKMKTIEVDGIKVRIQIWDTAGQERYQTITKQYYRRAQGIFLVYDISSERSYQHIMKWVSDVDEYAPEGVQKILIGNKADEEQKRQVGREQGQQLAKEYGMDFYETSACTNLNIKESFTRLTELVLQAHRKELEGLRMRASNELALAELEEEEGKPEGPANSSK

[5] = biological target: T5, Rab3A (Homo sapiens, UniProt P20336); assay: dynamic scanning fluorimetry (SYPRO Orange); assay type: binding; settings: 1 mM nucleotide, 4 uM protein, 2.5 mM MgCl2, pH 7.4
T5 construct: near full-length without C-terminal prenylation region; pET-28a, His6 tag cut by TEV; E. coli BL21(DE3)
T5 sequence (P20336 1-200 limits assumed): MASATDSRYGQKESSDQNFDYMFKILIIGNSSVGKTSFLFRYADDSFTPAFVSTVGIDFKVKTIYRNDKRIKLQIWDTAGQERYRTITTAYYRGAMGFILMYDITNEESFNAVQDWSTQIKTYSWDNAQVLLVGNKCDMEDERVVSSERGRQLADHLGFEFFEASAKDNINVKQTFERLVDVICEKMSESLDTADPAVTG

[6] = biological target: T6, Rab10 (Homo sapiens, UniProt P61026); assay: dynamic scanning fluorimetry (SYPRO Orange); assay type: binding; settings: 1 mM nucleotide, 4 uM protein, 2.5 mM MgCl2, pH 7.4
T6 construct: near full-length without C-terminal prenylation region; pET-28a, His6 tag cut by TEV; E. coli BL21(DE3)
T6 sequence (P61026 1-181 limits assumed): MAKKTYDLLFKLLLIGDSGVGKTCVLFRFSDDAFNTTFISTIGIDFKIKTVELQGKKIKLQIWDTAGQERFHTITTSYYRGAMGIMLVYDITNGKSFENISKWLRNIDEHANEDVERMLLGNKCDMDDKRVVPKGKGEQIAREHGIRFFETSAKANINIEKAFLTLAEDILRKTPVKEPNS

[7] = biological target: T7, Rab1A (Homo sapiens, UniProt P62820); assay: dynamic scanning fluorimetry (SYPRO Orange); assay type: binding; settings: 1 mM nucleotide, 4 uM protein, 2.5 mM MgCl2, pH 7.4
T7 construct: near full-length without C-terminal prenylation region; pET-28a, His6 tag cut by TEV; E. coli BL21(DE3)

[8] = biological target: T8, Rab13 (Homo sapiens, UniProt P51153); assay: dynamic scanning fluorimetry (SYPRO Orange); assay type: binding; settings: 1 mM nucleotide, 4 uM protein, 2.5 mM MgCl2, pH 7.4
T8 construct: near full-length without C-terminal prenylation region; pET-28a, His6 tag cut by TEV; E. coli BL21(DE3)
T8 sequence (P51153 1-180 limits assumed): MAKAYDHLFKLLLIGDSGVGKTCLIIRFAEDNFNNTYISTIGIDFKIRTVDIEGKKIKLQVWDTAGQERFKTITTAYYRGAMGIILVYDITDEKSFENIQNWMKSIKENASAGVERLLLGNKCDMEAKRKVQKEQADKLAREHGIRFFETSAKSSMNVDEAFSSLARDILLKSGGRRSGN

[9] = biological target: T9, Rab2A (Homo sapiens, UniProt P61019); assay: dynamic scanning fluorimetry (SYPRO Orange); assay type: binding; settings: 1 mM nucleotide, 4 uM protein, 2.5 mM MgCl2, pH 7.4
T9 construct: near full-length without C-terminal prenylation region; pET-28a, His6 tag cut by TEV; E. coli BL21(DE3)

[10] = biological target: T10, Rab29 (Homo sapiens, UniProt O14966); assay: dynamic scanning fluorimetry (SYPRO Orange); assay type: binding; settings: 1 mM nucleotide, 4 uM protein, 2.5 mM MgCl2, pH 7.4
T10 construct: near full-length without C-terminal prenylation region; pET-28a, His6 tag cut by TEV; E. coli BL21(DE3)
T10 sequence (O14966 1-195 limits assumed): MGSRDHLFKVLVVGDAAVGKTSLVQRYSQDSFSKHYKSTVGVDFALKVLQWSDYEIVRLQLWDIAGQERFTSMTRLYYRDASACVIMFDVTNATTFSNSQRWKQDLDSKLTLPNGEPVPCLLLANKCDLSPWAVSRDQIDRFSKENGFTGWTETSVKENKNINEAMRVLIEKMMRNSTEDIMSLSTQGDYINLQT

[11] = biological target: T11, Rab12 (Homo sapiens, UniProt Q6IQ22); assay: dynamic scanning fluorimetry (SYPRO Orange); assay type: binding; settings: 1 mM nucleotide, 4 uM protein, 2.5 mM MgCl2, pH 7.4
T11 construct: near full-length without C-terminal prenylation region; pET-28a, His6 tag cut by TEV; E. coli BL21(DE3)
T11 sequence (Q6IQ22 97-318 limits assumed): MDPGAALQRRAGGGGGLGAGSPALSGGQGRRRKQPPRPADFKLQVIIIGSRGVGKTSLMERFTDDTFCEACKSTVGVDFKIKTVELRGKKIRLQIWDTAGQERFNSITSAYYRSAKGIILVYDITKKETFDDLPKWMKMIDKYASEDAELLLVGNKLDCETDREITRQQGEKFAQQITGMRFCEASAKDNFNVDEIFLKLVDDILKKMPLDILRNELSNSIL

[12] = biological target: T12, Rab8B (Homo sapiens, UniProt Q92930); assay: dynamic scanning fluorimetry (SYPRO Orange); assay type: binding; settings: 1 mM nucleotide, 4 uM protein, 2.5 mM MgCl2, pH 7.4
T12 construct: near full-length without C-terminal prenylation region; pET-28a, His6 tag cut by TEV; E. coli BL21(DE3)
T12 sequence (Q92930 1-203 limits assumed): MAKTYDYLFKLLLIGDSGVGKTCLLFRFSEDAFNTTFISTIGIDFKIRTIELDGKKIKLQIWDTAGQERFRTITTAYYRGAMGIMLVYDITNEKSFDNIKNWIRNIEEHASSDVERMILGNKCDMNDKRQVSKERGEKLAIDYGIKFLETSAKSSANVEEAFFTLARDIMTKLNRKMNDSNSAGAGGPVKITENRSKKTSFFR

[13] = biological target: T13, Rab8A (Homo sapiens, UniProt P61006); assay: dynamic scanning fluorimetry (SYPRO Orange); assay type: binding; settings: 1 mM nucleotide, 4 uM protein, 2.5 mM MgCl2, pH 7.4; shift relative to apo
T13 construct: near full-length without C-terminal prenylation region; pET-28a, His6 tag cut by TEV; E. coli BL21(DE3)
T13 sequence (P61006 1-203 limits assumed): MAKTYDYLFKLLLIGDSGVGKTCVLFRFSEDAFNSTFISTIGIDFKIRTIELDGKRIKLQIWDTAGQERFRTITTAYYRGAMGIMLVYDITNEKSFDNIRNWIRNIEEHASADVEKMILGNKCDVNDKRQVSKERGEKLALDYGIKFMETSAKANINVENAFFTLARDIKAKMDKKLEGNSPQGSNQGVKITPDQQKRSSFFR

[14] = biological target: LRRK2 (Leucine-rich repeat kinase 2) (UniProt Q5S007)
Chain of LRRK2 (Leucine-rich repeat kinase 2) (Q5S007 whole entry): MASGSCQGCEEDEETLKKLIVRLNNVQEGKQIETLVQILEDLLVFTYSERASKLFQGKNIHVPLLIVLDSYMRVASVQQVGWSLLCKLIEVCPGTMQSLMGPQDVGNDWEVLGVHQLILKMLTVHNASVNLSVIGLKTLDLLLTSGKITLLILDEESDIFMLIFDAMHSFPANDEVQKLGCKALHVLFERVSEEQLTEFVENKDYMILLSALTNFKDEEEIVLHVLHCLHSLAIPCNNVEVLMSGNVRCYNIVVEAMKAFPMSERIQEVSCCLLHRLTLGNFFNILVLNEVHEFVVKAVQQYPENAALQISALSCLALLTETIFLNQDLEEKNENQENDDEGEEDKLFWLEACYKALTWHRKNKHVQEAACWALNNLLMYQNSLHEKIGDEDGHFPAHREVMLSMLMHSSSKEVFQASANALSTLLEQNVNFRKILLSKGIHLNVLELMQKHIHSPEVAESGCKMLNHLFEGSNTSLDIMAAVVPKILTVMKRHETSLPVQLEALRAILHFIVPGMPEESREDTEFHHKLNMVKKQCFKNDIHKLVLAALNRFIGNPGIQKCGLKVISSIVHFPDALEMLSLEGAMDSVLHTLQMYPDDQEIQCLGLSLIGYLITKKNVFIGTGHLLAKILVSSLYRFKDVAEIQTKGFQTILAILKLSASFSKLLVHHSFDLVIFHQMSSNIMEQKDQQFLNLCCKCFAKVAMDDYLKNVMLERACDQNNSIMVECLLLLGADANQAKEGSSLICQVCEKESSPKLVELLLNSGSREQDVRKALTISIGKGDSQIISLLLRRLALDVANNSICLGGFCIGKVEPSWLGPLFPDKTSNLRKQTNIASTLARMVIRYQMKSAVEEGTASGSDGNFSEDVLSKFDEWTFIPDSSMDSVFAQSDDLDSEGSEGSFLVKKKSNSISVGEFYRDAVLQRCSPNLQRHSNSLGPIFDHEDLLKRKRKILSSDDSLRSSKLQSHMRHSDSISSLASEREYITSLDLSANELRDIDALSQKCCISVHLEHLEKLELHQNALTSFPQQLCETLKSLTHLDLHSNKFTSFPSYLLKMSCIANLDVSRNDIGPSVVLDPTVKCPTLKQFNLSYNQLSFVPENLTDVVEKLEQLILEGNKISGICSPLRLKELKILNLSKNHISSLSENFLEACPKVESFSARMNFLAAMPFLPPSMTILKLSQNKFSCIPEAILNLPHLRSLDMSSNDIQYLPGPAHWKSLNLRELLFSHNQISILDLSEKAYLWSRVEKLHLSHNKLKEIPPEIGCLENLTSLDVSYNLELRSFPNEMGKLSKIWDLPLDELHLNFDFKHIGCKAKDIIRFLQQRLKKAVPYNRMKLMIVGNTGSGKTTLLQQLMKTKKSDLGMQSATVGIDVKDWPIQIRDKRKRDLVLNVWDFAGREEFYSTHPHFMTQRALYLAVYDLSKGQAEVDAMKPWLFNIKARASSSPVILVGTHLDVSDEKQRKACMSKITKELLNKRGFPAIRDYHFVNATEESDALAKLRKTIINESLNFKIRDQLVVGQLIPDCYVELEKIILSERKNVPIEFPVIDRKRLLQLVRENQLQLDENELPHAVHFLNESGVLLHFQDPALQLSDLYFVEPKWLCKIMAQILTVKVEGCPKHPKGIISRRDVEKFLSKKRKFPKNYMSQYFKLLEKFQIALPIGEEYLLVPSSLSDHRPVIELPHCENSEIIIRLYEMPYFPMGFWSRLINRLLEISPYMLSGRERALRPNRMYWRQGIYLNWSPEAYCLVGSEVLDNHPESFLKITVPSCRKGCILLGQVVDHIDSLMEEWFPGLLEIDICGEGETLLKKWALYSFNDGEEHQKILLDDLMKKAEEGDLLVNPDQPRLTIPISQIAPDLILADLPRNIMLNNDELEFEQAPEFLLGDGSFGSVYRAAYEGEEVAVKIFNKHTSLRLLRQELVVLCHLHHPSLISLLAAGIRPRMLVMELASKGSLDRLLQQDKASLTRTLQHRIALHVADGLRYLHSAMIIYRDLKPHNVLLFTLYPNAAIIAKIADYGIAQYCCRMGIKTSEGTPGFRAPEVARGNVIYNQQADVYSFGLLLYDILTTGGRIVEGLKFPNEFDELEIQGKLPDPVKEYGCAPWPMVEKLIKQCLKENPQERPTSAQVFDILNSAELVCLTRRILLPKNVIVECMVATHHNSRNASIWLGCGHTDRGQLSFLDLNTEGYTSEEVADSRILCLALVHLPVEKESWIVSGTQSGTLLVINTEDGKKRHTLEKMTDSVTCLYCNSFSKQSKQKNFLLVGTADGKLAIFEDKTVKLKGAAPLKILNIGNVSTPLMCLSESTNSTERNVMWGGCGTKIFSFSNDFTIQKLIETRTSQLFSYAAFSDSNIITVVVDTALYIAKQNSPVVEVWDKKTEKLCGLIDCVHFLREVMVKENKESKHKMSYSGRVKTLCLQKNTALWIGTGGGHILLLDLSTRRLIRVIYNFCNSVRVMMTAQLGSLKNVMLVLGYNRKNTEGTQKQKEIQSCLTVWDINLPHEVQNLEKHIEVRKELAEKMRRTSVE

T3 sequence (P51149 1-185 limits assumed): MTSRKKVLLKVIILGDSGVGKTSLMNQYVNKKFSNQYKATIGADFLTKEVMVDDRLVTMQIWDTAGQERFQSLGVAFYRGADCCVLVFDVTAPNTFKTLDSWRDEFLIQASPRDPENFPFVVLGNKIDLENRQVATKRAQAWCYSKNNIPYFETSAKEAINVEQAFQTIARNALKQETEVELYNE
T7 sequence (P62820 1-203 limits assumed): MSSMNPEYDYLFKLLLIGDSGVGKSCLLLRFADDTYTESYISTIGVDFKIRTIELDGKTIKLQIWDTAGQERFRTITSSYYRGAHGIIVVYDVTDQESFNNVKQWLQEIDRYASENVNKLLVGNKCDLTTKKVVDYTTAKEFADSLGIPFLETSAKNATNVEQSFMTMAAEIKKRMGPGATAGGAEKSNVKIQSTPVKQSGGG
T9 sequence (P61019 1-210 limits assumed): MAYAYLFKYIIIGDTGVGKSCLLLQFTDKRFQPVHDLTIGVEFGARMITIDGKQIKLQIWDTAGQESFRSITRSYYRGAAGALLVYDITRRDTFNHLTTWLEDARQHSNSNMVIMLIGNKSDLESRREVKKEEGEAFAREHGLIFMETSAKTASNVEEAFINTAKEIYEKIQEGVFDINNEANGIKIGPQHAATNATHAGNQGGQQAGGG

| Molecule | Tm [1] | Tm [3] | Tm [6] | Tm [8] | dTm [13] [K] | also measured |
| --- | --- | --- | --- | --- | --- | --- |
| Nc1nc2c(ncn2[C@@H]2O[C@H](COP(=O)(O)OP(=O)(O)O)[C@@H](O)[C@H]2O)c(=O)[nH]1 [GDP] | for several Rabs including Rab9A and Rab13, the Rab:GDP and Rab:GTP complexes displayed equal stability | All Rabs from the panel bound to and were stabilized by guanine nucleotides. | All Rabs from the panel bound to and were stabilized by guanine nucleotides. | for several Rabs including Rab9A and Rab13, the Rab:GDP and Rab:GTP complexes displayed equal stability | 15 | Tm [2]: All Rabs from the panel bound to and were stabilized by guanine nucleotides.; Tm [4]: All Rabs from the panel bound to and were stabilized by guanine nucleotides.; Tm [5]: All Rabs from the panel bound to and were stabilized by guanine nucleotides.; Tm [7]: All Rabs from the panel bound to and were stabilized by guanine nucleotides.; Tm [9]: All Rabs from the panel bound to and were stabilized by guanine nucleotides.; Tm [10]: All Rabs from the panel bound to and were stabilized by guanine nucleotides.; Tm [11]: All Rabs from the panel bound to and were stabilized by guanine nucleotides.; Tm [12]: All Rabs from the panel bound to and were stabilized by guanine nucleotides. |
| Nc1nc2c(ncn2[C@@H]2O[C@H](COP(=O)(O)OP(=O)(O)OP(=O)(O)O)[C@@H](O)[C@H]2O)c(=O)[nH]1 [GTP] | for several Rabs including Rab9A and Rab13, the Rab:GDP and Rab:GTP complexes displayed equal stability | All Rabs from the panel bound to and were stabilized by guanine nucleotides. | All Rabs from the panel bound to and were stabilized by guanine nucleotides. | for several Rabs including Rab9A and Rab13, the Rab:GDP and Rab:GTP complexes displayed equal stability | 21 | – |
| Rab8A E108R (from UniProt P61006 1-207) (natural protein) | – | – | – | – | – | T72 phosphograde of the Rab8A:GDP variant after phosphorylation by LRRK2, relative to wildtype Rab8A (ESI-TOF MS kinase activity assay) (fold (increase)) [14]: 18 |
| Rab8A R104A (from UniProt P61006 1-207) (natural protein) | – | – | – | – | – | T72 phosphograde of the Rab8A:GDP variant after phosphorylation by LRRK2, relative to wildtype Rab8A (ESI-TOF MS kinase activity assay) (fold (reduced)) [14]: 2 |
